Results published in patent US6956034B2, “Oxazin(ethyl)one compounds used as fungicides” (BASF Aktiengesellschaft, priority 2001, dated 2005).

Tests used:
[1] = tested on: mildew of cucumbers (Sphaerotheca fuliginea); test: Protective activity against mildew of cucumbers; assay type: in vivo; settings: cucumber seedlings, sprayed 20 h before inoculation, 7 days, untreated 90
Description: The active compounds were used as aqueous preparations of active compounds which contained the active compound in a concentration of 250 ppm, 63 ppm, 16 ppm and 4 ppm, respectively. The aqueous preparation of active compound was prepared by diluting a stock solution of 10% by weight of active compound, 63% by weight of cyclohexanone and 27% by weight of emulsifier (20 parts by weight of Nekanil® LN (Lutensol® AP6, wetting agent having emulsifying and dispersing action based on ethoxylated alkylphenols) and 10 parts by weight of Wettol® EM (nonionic emulsifier based on ethoxylated castor oil)) with water in the amount required for the desired concentration.
Leaves of cucumber seedlings of the cultivar “Chinesische Schlange” which had been grown in pots were, at the cotyledon stage, sprayed to runoff point with an aqueous preparation of active compound. 20 hours after the spray coating had dried on, the plants were inoculated with an aqueous spore suspension of mildew of cucumbers (Sphaerotheca fuliginea). The plants were then cultivated in a greenhouse at 20-24° C. and 60-80% relative atmospheric humidity for 7 days. The extent of the mildew development was then determined visually in % infection of the cotyledon area.

[2] = tested on: mildew of wheat (Erysiphe [syn. Blumeria] graminis forma specialis tritici); test: Protective activity against mildew of wheat; assay type: in vivo; settings: wheat seedlings, sprayed 24 h before inoculation, 7 days, untreated 85
Description: The active compounds were used as aqueous preparations of active compounds which contained the active compound in a concentration of 250 ppm, 63 ppm, 16 ppm and 4 ppm, respectively. The aqueous preparation of active compound was prepared by diluting a stock solution of 10% by weight of active compound, 63% by weight of cyclohexanone and 27% by weight of emulsifier (20 parts by weight of Nekanil® LN (Lutensol® AP6, wetting agent having emulsifying and dispersing action based on ethoxylated alkylphenols) and 10 parts by weight of Wettol® EM (nonionic emulsifier based on ethoxylated castor oil)) with water in the amount required for the desired concentration. The first fully developed leaves of the wheat seedlings of the variety “Kanzler” which had been grown in pots were sprayed to runoff point with an aqueous preparation of active compound prepared from a stock solution containing 10% of active compound, […]. 24 hours after the spray coating had dried on, the plants were inoculated with an aqueous spore suspension of mildew of wheat (Erysiphe [syn. Blumeria] graminis forma specialis. tritici). The plants were then cultivated in a greenhouse at 20-24° C. and 60-90% relative atmospheric humidity. After 7 days the extent of the mildew development was determined visually in % infection of the leaves.

Measured: percentage of infection of leaves at the prescribed concentration of active compound

CCCCn1c(=NOC(C)C)oc2ccc(I)cc2c1=O [I - A1.138]
0%: [1]; 16 ppm | [1]; 63 ppm | [1]; 250 ppm | [2]; 16 ppm | [2]; 63 ppm | [2]; 250 ppm

CCCn1c(=NOC(C)C)oc2ccc(I)cc2c1=O [I - A1.139]
0%: [1]; 16 ppm | [1]; 63 ppm | [1]; 250 ppm | [2]; 16 ppm | [2]; 63 ppm | [2]; 250 ppm
